Measurements taken from patent publication US9708325B2, “Sulfonimidoylpurinone compounds and derivatives for the treatment and prophylaxis of virus infection” (Hoffmann-La Roche Inc., priority 2015, dated 2017).
≈ marks a conversion by molar mass, not a printed value. Read-outs that look alike come from different tables or passages of the source. One block for each compound: values may come before it.

Key:
LYSA solubility = format: physicochemical; conditions: for solubility thermodynamic: 0.05 M phosphate buffer, pH 6.5, aqueous buffer, thermodynamic from solid; for LYSA: 0.05 M phosphate buffer (pH 6.5)
Description: LYSA solubility assay is used to determine the aqueous solubility of a compound. Samples were prepared in duplicate from 10 mM DMSO stock solution. […] After one night, the solutions were filtered using a microtiter filter plate. Then the filtrate and its 1/10 dilution were analyzed by HPLC-UV.

[1] = Metabolic stability in human liver microsomes; conditions: 1 μM test compound, 0.5 mg/mL microsomal protein; 6.15 mL/min/kg is the limitation of assay sensitivity
Description: The human microsomal stability assay is used for early assessment of metabolic stability of a test compound in human liver microsomes.
Human liver microsomes (Cat. NO.: 452117, Corning, USA; Cat. NO.: H2610, Xenotech, USA) were preincubated with test compound for 10 minutes at 37° C. in 100 mM potassium phosphate buffer, pH 7.4. The reactions were initiated by adding NADPH regenerating system. The final incubation mixtures contained 1 μM test compound, 0.5 mg/mL liver microsomal protein, 1 mM MgCL2, 1 mM NADP, 1 unit/mL isocitric dehydrogenase and 6 mM isocitric acid in 100 mM potassium phosphate buffer, pH 7.4. After incubation times of 0, 3, 6, 9, 15 and 30 minutes at 37° C., 300 μL of cold ACN (including internal standard) was added to 100 μL incubation mixture to terminate the reaction. Following precipitation and centrifugation, the amount of compound remaining in the samples were determined by LC-MS/MS. Controls of no NADPH regenerating system at zero and 30 minutes were also prepared and analyzed.

[2] = test system: Salmonella typhimurium tester strains (TA1535, TA97, TA98, TA100, and TA102); assay: Ames microsuspension assay; format: cell-based; conditions: five strains, absence and presence of S9
Description: The Ames microsuspension assay examines if a compound causes DNA mutations. The method was based on a modified pre-incubation version described by Kado et al (see references: B. N. Ames, J. McCann, E. Yamasaki, Mutation Res. 1975, 31, 347-364 N.Y. Kado, D. Langley, and E. Eisenstadt, Mutation Res. 1983, 121, 25-32). Five Salmonella typhimurium tester strains (TA1535, TA97, TA98, TA100, and TA102) were treated with the test compound in absence and in presence of an exogenous metabolic activation system (S9). The bacteria were pre-incubated for 1 h, the pre-incubation volume is 210 μL (100 μL of overnight culture, 100 μL of S9 mix (10% S9) or 100 μL phosphate buffer, and 10 μL test compound solution). The overnight cultures were resuspended for the test in cold phosphate buffer. The S9 mix contains potassium chloride, magnesium chloride, sodium phosphate buffered saline, NADP^+ and glucose-6-phosphate. The test tubes are incubated and shaken for 60 minutes at 37° C. 2.2 mL soft agar supplemented with L-histidine and biotin was added afterwards and the content of the tubes were mixed and poured on Vogel-Bonner minimal agar plates.
Three replicate plates for the test compound and negative control or two replicate plates for the positive controls were incubated at 37° C., upside down, for 2 days. Colonies were counted electronically using an automatic image analysis system after having inspected the background lawn for signs of toxicity.
S9 is an in vitro metabolic system which is obtained from liver homogenates by centrifuging them at 9000 g for 20 minutes. It contains CYP450 isoforms, phase-II metabolic enzymes, etc. In the Ames microsuspension assay test, S9 is used to assess mutagenicity of compounds, some of which require metabolic activation to become mutagenic.
Criteria of the Ames microsuspension assay: a positive result is defined as a reproducible, dose-related increase in the number of revertant colonies in at least one of the strains. For TA1535 and TA98, the positive threshold is a 2-fold increase over control. For TA97, TA100 and TA102, the threshold is a 1.5-fold increase.

human TLR7 = human TLR7 (Homo sapiens (Human), UniProt Q9NYK1); assay: HEK-Blue-hTLR7 cells assay (SEAP reporter); format: cell-based; conditions: 20 hrs, read-out: HEK-Blue-hTLR7 (EC50 (μM))
human TLR7, sequence (Q9NYK1 27-1049): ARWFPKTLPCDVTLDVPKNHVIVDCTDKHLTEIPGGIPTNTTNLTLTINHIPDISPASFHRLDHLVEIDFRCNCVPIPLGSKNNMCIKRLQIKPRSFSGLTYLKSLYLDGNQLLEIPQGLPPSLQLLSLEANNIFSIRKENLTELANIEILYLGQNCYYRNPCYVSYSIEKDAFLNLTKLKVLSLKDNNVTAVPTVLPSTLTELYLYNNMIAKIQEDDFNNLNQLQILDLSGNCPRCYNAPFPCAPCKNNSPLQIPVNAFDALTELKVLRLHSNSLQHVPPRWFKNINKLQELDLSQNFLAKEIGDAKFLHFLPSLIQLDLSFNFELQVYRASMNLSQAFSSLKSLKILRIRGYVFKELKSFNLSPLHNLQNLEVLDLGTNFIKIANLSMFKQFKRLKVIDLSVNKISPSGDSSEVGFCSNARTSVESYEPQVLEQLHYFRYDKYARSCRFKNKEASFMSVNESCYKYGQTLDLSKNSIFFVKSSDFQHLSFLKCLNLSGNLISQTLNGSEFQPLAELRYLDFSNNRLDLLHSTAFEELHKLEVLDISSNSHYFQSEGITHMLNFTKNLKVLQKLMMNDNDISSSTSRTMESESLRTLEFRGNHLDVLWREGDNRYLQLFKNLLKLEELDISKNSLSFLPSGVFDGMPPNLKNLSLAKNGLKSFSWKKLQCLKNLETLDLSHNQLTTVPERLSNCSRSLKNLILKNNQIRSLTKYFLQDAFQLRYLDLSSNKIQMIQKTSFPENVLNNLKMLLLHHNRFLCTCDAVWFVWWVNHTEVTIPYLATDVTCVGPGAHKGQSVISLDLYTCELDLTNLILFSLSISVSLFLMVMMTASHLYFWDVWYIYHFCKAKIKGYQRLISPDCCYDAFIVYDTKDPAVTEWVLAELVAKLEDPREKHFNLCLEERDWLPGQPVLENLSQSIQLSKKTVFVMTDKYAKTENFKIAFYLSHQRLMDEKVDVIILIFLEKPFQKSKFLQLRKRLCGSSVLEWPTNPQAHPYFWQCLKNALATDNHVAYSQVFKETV
Description: (§1) A stable HEK-Blue-hTLR7 cell line was purchased from InvivoGen (Cat.#: hkb-htlr7, San Diego, Calif., USA). These cells were designed for studying the stimulation of human TLR7 by monitoring the activation of NF-κB. […] Therefore the reporter expression was regulated by the NF-κB promoter upon stimulation of human TLR7 for 20 hrs. The cell culture supernatant SEAP reporter activity was determined using QUANTI-Blue™ kit (Cat.#: rep-qb1, Invivogen, San Diego, Ca, USA) at a wavelength of 640 nm, a detection medium that turns purple or blue in the presence of alkaline phosphatase.
(§2) HEK-Blue-hTLR7 cells were incubated at a density of 250,000˜450,000 cells/mL in a volume of 180 μL in a 96-well plate in Dulbecco's Modified Eagle's medium (DMEM) containing 4.5 g/L glucose, 50 U/mL penicillin, […], […], 2 mM L-glutamine, 10% (V/V) heat-inactivated fetal bovine serum for 24 hrs. Then the HEK-Blue-hTLR-7 cells were incubated with addition of 20 μL test compound in a serial dilution in the presence of final DMSO at 1% and perform incubation under 37° C. in a CO2 incubator for 20 hrs. Then 20 μL of the supernatant from each well was incubated with 180 μL Quanti-blue substrate solution at 37° C. for 2 hrs and the absorbance was read at 620˜655 nm using a spectrophotometer. The signalling pathway that TLR7 activation leads to downstream NF-κB activation has been widely accepted, and therefore similar reporter assay was also widely used for evaluating TLR7 agonist (Tsuneyasu Kaisho and Takashi Tanaka, Trends in Immunology, Volume 29, Issue 7, July 2008, […]; Hiroaki Hemmi et al, Nature Immunology 3, 196-200 (2002)).

CYP3A4 = assay: Cytochrome P450 induction screening assay, mRNA induction in human cryopreserved hepatocytes; format: in vitro ADME; conditions: 24 hours exposure
Text: Induction of cytochrome P450 enzymes is associated with an increased prevalence of clinical drug-drug interactions. The clinical consequences of induction may be therapeutic failure caused by a decreased systemic exposure of the drug itself or a co-administered therapy, or toxicity as a result of increased bioactivation. Cytochrome P450 (CYP450) induction assay has been used to understand the potential drug-drug interaction liabilities in drug discovery stage. Human cryopreserved hepatocytes (Life Technologies, Carlsbad, USA) were thawed and cultured in collagen I coated 96-well plates with a density of 52,000 cells/well. After attachment, hepatocyte maintenance medium (HMM; Lonza, Switzerland) was changed after cells were pre-cultured overnight. […] Medium change was then performed and cells were exposed for 24 hours to test compounds, positive inducer compounds, or vehicle (0.1% DMSO), respectively. At the end of the compound exposure period, medium was removed and cells lysed using 100 μL/well MagNA Pure LC RNA isolation tissue lysis buffer (Roche Diagnostics AG, Rotkreuz, Switzerland). […] mRNA isolation was performed using the MagNA Pure 96 system (Roche Diagnostics AG, Rotkreuz, Switzerland) and the respective cellular RNA large volume kit (Roche Diagnostics AG, Rotkreuz, Switzerland) from thawed samples diluted 1:1 with PBS. […] The resulting cDNA was diluted with 40 μL of H2O before using for qRT-PCR. qRT-PCR was performed by using the forward and the reverse primer, the corresponding Universal Probe Library (all from Microsynth, Balgach, Switzerland) and the Taqman Fast advanced master mix (Applied Biosystems), on an ABI 7900 machine (Applied Biosystems). qRT-PCR Ct-values for the respective P450s were put into relation to the Ct-value of RN18S1 (microsynth, Balgach, Switzerland) of the same sample. Doing so, a respective Δct-value was calculated. Using the average of all Δct-values for the vehicle control samples, a ΔΔct-value was calculated for each sample (ΔΔct-value(sample)=Δct-value(sample)−average of Δct-value of all vehicle controls). […] The individual fold induction values were then averaged per treatment condition (usually n=3 biological replicates).

human TLR8 = human TLR8 (Homo sapiens (Human), UniProt Q9NR97); assay: HEK-Blue-hTLR8 cells assay and selectivity index; format: cell-based
human TLR8, sequence (Q9NR97 27-1041): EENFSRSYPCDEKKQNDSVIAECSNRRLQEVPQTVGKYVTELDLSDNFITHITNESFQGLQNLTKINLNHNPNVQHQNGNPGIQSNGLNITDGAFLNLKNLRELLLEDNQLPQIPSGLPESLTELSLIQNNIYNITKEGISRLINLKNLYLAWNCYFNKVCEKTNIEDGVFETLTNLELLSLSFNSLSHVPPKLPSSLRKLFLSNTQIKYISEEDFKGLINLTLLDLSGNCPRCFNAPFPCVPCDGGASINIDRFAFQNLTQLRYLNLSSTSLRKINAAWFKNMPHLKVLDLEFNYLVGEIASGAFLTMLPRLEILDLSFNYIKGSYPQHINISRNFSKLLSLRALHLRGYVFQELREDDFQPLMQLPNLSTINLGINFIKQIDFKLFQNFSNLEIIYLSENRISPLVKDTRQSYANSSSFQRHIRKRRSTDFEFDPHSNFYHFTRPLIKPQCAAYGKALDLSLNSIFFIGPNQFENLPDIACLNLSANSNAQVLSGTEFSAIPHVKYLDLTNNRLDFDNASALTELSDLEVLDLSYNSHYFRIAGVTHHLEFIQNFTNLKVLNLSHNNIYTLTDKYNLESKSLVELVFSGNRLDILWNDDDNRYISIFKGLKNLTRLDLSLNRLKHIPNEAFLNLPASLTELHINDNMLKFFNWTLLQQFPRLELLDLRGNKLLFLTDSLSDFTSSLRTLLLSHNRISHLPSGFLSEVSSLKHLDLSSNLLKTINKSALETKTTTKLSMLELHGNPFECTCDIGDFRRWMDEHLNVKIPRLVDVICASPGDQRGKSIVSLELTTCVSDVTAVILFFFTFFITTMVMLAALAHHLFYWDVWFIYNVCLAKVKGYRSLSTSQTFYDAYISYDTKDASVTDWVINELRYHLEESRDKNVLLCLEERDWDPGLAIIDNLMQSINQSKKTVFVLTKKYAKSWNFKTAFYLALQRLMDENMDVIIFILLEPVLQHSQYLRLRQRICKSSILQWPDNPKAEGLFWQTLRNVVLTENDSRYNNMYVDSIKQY
Description: as §1, with “HEK-Blue-hTLR8” for “HEK-Blue-hTLR7”, “HEK-Blue-htlr8,” for “hkb-htlr7,”, “TLR8” for “TLR7”
as §2, with “HEK-Blue-hTLR8 cells” for “HEK-Blue-hTLR7 cells”, “the HEK-Blue-hTLR8” for “the HEK-Blue-hTLR-7”, “2 hours” for “2 hrs”, “that TLR8” for “that TLR7”, “evaluating TLR8” for “evaluating TLR7”
The ratio of TLR8 agonism activity compared to TLR7 agonism activity was defined as the selectivity index (EC50 (TLR8) value/EC50(TLR7) value) and calculated accordingly.

[3] = Single dose PK after 1 mg/kg intravenous dosing to rat; format: in vivo, Male Wister-Han Rats; conditions: IV 1 mpk; for concentration at 4 h: read-out: Mean plasma concentration
Description: The single dose PK in Male Wister-Han Rats was performed to assess pharmacokinetic properties of tested compounds. Two groups of animals were dosed via bolus intravenous (IV) of the respective compound. Blood samples (approximately 20 μL) were collected via Jugular vein or an alternate site at 5 min, 15 min, 30 min, 1 hr, 2 hr, 4 hr, 7 hr and 24 hr post-dose for IV group. Blood samples were placed into tubes containing EDTA-K2 anticoagulant and centrifuged at 5000 rpm for 6 min at 4° C. to separate plasma from the samples. Following centrifugation, the resulting plasma was transferred to clean tubes for bioanalysis on LC/MS/MS. The pharmacokinetic parameters were calculated using non-compartmental module of WinNonlin® Professional 6.2. […] Therefore, compounds of present invention potentially could lead to less dose frequency and lower dose in clinical application.

hERG channel = hERG channel (Homo sapiens (Human), UniProt Q12809); assay: hERG channel inhibition assay (patch-clamp, CHOhERG cells); format: cell-based
hERG channel, sequence (Q12809 whole entry): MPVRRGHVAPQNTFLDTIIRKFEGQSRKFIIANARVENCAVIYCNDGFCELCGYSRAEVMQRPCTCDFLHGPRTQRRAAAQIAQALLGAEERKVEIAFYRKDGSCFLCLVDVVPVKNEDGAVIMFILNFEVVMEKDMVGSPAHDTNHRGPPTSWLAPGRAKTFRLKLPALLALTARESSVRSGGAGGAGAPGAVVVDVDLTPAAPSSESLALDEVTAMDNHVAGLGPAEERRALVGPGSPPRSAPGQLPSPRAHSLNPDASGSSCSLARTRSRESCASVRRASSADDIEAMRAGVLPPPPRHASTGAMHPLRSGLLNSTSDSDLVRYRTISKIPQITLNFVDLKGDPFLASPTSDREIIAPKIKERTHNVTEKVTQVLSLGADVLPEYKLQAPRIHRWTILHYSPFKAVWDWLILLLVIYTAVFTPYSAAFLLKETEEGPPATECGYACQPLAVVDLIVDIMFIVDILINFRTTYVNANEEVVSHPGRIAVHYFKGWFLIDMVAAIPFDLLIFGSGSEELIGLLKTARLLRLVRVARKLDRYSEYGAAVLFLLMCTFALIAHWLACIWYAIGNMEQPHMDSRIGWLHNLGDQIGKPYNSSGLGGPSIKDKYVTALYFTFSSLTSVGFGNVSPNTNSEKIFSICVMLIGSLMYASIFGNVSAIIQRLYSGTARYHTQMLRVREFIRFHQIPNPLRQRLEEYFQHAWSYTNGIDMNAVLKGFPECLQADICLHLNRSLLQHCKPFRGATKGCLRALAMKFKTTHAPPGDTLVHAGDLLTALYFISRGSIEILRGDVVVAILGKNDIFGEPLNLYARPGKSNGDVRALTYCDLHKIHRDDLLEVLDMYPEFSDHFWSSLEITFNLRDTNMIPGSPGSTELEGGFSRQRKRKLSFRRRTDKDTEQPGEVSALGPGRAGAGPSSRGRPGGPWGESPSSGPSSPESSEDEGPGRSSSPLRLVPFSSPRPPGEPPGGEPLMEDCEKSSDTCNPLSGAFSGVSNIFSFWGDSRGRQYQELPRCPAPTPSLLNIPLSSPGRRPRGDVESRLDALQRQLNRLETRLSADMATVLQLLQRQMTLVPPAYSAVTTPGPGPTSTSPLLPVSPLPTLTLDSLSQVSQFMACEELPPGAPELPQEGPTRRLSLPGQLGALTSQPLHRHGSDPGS
Description: The hERG K^+ channels were cloned in humans and stably expressed in a CHO (Chinese hamster ovary) cell line. CHOhERG cells were used for patch-clamp (voltage-clamp, whole-cell) experiments. Cells were stimulated by a voltage pattern to activate hERG channels and conduct IKhERG currents (rapid delayed outward rectifier potassium current of the hERG channel). […] Thereafter, the test compound was added to the preparation at increasing concentrations. For each concentration, an attempt was made to reach a steady-state effect, usually, this was achieved within 3-10 min at which time the next highest concentration was applied. The amplitude and kinetics of IKhERG are recorded in each concentration of the drug which were compared to the control values (taken as 100%). (references: Redfern W S, Carlsson L, Davis A S, Lynch W G, MacKenzie I, Palethorpe S, Siegl P K, Strang I, Sullivan A T, Wallis R, Camm A J, Hammond T G. 2003; Relationships between preclinical cardiac electrophysiology, clinical QT interval prolongation and torsade de pointes for a broad range of drugs: evidence for a provisional safety margin in drug development. Cardiovasc. Res. 58:32-45, Sanguinetti M C, Tristani-Firouzi M. 2006; hERG potassium channels and cardiac arrhythmia. Nature 440:463-469, Webster R, Leishman D, Walker D. 2002; Towards a drug concentration effect relationship for QT prolongation and torsades de pointes. Curr. Opin. Drug Discov. Devel. 5:116-26).

SMILES: CS(=N)(=O)c1nc(N)c2[nH]c(=O)n(Cc3ccccc3)c2n1 (single isomer, unassigned) [Example 1-B, 6-Amino-9-benzyl-2-(methylsulfonimidoyl)-7H-purin-8-one]
- solubility thermodynamic (LYSA solubility): 98 µg/mL (≈ 308 µM)
- Human Liver Microsome Clearance [1]: <6.15 mL/min/kg
- Ames result [2]: negative

- EC50 (human TLR7): 0.037 µM
- solubility thermodynamic (LYSA solubility): 12 µg/mL (≈ 32.9 µM)
- Relative induction of Positive control (10 μM Rifampicin) (%) (CYP3A4): −0.72%
SMILES: CCCS(=N)(=O)c1nc(N)c2[nH]c(=O)n(Cc3ccc(F)cc3)c2n1 (stereo not shown) [Example 24, 6-Amino-9-[(4-fluorophenyl)methyl]-2-(propylsulfonimidoyl)-7H-purin-8-one]

- EC50 (human TLR7): 0.37 µM
- Selective index (human TLR8; EC50(TLR8) value/EC50(TLR7) value): >2703
- EC50 (human TLR8; HEK-Blue-hTLR8 cells, SEAP reporter, 20 hrs, read-out: HEK Blue hTLR-8 EC50): > 1000 µM
- LYSA (LYSA solubility): 0.5 µg/mL
- AUC0-inf [3]: 0.201 µM·h
- CL [3]: 261 mL/min/kg
- CO [3]: 534 nM
- concentration at 4 h ([3]; 0.083 h): 534 nM
- concentration at 4 h ([3]; 0.25 h): 236 nM
- concentration at 4 h ([3]; 0.5 h): 125 nM
- concentration at 4 h ([3]; 1 h): 38 nM
- concentration at 4 h ([3]; 2 h): 9 nM
SMILES: CS(=O)(=O)c1nc(N)c2[nH]c(=O)n(Cc3ccccc3)c2n1 [Example S-1, reference compound]

SMILES: CCCS(=N)(=O)c1nc(N)c2[nH]c(=O)n(Cc3ccc(C)cc3)c2n1 (single isomer, unassigned) [Example 29-B, 6-Amino-2-(propylsulfonimidoyl)-9-(p-tolylmethyl)-7H-purin-8-one]
- LYSA (LYSA solubility): 11 µg/mL
- Ames result [2]: negative
- Safety ratio (hERG IC20/EC50) (hERG channel; hERG IC20/EC50): >546
- IC20 (hERG channel; read-out: hERG IC20): > 10 µM
